Like-named read-outs stand apart in the source and are kept apart here.

As a reminder, the IC50 is the concentration that inhibits the measured activity by half.

A short description of data set [1]: maximum tolerated dose / in vivo toxicity study in mice. The conditions noted are these: mouse, in vivo. How it is done:
The in vivo study was performed in compliance with the NIH Animal Use Guidelines and protocol approved by the Institutional Animal Care and Use Committee (IACUC) at the University of Tennessee Health Science Center (UTHSC, Memphis, Tenn.). NSG mice at 8 weeks (n=2) and ICR mice at 12 weeks (n=3) were housed with a 12:12-hour light-dark cycle and fed a breeder chow diet. Daily IP injections of 200 mg/kg of compounds 22 or 79 were administered for five consecutive injections in five mice, respectively, which were followed to monitor the mortality rate. Body weights of the mice were recorded daily.
(§1) The metabolic stability of compound 22 was tested prior to the next phase of in vivo study. […] The maximum tolerated dose (MTD) study was subsequently performed to investigate its in vivo toxicity (FIGS. 4A and 4B). The second major limitation of Pyr3 is its toxicity due to its alkylating tail moiety. While replacing only the fast-metabolizing head ester group in Pyr3 with a stable amide (compound 79) improved metabolic stability, a single IP injection of compound 79 at 200 mg/kg killed all mice within 24 h.
Compound 79 is a metabolically stable version of Pyr3. Mice treated daily with compound 22 or compound 79 (n=5) for 5 consecutive days. All the mice were treated with either compound 22 or 79 at 200 mg/kg (IP). […]

In data set [2] the target is T1, TRPC3 (Homo sapiens, UniProt Q13507).
T1 sequence (Q13507 1-921): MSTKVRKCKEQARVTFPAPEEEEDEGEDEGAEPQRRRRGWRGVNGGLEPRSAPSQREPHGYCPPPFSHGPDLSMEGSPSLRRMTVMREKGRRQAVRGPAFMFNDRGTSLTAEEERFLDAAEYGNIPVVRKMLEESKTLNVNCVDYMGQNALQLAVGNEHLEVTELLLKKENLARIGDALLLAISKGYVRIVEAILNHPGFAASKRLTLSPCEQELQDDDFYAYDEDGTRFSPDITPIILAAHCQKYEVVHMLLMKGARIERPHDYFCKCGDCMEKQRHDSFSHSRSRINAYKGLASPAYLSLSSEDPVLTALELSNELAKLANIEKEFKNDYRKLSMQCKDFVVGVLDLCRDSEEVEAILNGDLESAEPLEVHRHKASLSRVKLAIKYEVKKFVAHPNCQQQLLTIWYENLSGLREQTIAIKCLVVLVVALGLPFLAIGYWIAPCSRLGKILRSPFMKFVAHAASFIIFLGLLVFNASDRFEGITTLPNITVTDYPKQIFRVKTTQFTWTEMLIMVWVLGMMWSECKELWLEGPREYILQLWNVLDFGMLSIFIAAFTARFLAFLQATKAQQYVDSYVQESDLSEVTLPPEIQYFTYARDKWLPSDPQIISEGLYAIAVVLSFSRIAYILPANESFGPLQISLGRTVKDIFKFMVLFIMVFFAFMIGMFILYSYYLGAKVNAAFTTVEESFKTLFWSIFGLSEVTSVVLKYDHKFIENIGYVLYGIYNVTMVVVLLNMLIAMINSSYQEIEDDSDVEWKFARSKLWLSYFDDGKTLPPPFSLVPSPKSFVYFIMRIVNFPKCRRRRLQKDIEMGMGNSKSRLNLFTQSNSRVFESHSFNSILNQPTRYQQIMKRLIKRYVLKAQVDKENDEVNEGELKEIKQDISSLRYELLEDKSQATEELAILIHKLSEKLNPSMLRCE
The conditions noted are these: literature ref 20; read-out: reported IC50 for suppression of TRPC3; cited from earlier work.

Data set [3] relates to hippocampal neurons. The experiment in a line: neuroprotection against Aβ-containing conditioned medium (7PA2) in primary hippocampal neurons. The data set is classed as cell-based, rat. The conditions noted are these: 14 DIV neurons, 7PA2 medium, 16 hours, different concentrations. How it is done:
To visualize dendritic spines, 14 DIV hippocampal neurons at low density (5,000 cells per 35 mm dish) were exposed to 7PA2 conditioned media (CM), which contains naturally secreted Aβ, or CHO control media or for 16 h, with or without cotreatment with the two inhibitor compounds, followed by immunocytochemistry with MAP2 and DAPI counterstaining.
(§2) To explore the potential biological effects of compound 22 in a TRPC3 related disease model, its neuroprotective ability in primary cultured neurons (14 DIV prepared from E17 rats as described) was evaluated. The effects on neuron dendritic morphology were measured by imaging. Mature hippocampal neurons (DIV=14) were treated with CHO control medium, or naturally secreted Aβ-containing conditioned medium (7PA2), or in combination with compound 22 or Pyr3 at different concentrations, for 16 hours, followed by immunocytochemistry using an antibody against MAP2 and DAPI (data not shown). […] Hippocampal neurons (DIV=14) were treated with compound 22 or Pyr3 alone at different concentrations, followed by immunocytochemistry staining with MAP2 and DAPI (data not shown).

The nature of data set [4]: metabolic stability in rat liver microsomes. It is filed as in vitro ADME. The following applies: rat liver microsomes. The protocol:
as §1

For data set [5], the target named is T1, TRPC3. The experiment in a line: whole-cell patch clamp of HEK293 cells transfected with hTRPC3, currents activated by GSK1702934A. It is filed as cell-based. More on the design: expressed in transfected cells; host or cells: HEK293 (CRL-1573), transient transfection, pMO vector. How it is done:
Human embryonic kidney 293 (HEK293; catalog number CRL-1573) cells were cultured in Dulbecco's modified Eagle's medium (Invitrogen) supplemented with 10% fetal bovine serum and 1% penicillin-streptomycin at 37° C. and 5% CO2. Constructs cloned in pMO (a pcDNA3-modified vector) were co-transfected with GFP-pMO, using Lipofectamine 2000 (Invitrogen) according to the manufacturer's instructions. Macroscopic currents in the whole-cell patch clamp configuration were recorded 18-24 h post-transfection. The extracellular solution contained 140 mM NaCl, 6 mM KCl, 2 mM MgCl2, 10 mM HEPES, and 10 mM glucose (pH 7.4). Pipettes were made of borosilicate glass (outer diameter, 1.5 mm; inner diameter, 1.10 mm; Sutter Instruments) and fire-polished with a resistance between 2.8 and 4.0 megaohms when filled with an intracellular solution that contained 140 mM CsCl, 5 mM EGTA, and 10 mM HEPES, pH 7.2. Currents were recorded with a Multiclamp 700B amplifier (Molecular Devices) using a 1-s ramp from −100 to 100 mV. Agonist and antagonists perfused were dissolved in the bath solution prior experiments: TRP channel agonists Allyl isothiocyanate (AITC; TRPA1), capsaicin (TRPV1), and menthol (TRPM8) were obtained from Sigma, GSK1016790A (TRPV4) from Cayman chemicals, and GSK1702934A (TRPC3, TRPC6 and TRPC7) from Tocris Bioscience. Antagonist Pyr3 was obtained from Tocris Bioscience, all other antagonists were synthesized in house. Data were acquired with a sampling rate of 20 kHz, low-pass filtered (10 kHz), and analyzed offline using Clampfit v10.4.2.0 (Molecular Devices).
Electrophysiology results were expressed as means±SD. Data were plotted, and sigmoidal fitting was done using OriginPro (from OriginLab), with the following Boltzmann function:
Using the patch clamp technique in the whole-cell configuration, compounds were screened by challenging hTRPC3 overexpressing HEK293 cells with GSK1702934A to activate TRPC3 and each of the synthesized compounds (10 μM) individually in the presence of the agonist.
To avoid tachyphylaxis and determine the IC50 of compound 22, each point of the dose response curve (FIG. 1B) was done individually on a cell and exchanging coverslips between cells. […] FIGS. 1D-1I show the inhibition of TRPC3-mediated currents by compound 22 and Pyr3 (serving as the reference control). […] Similar results were obtained when OAG was used as the agonist (data not shown).
(The patch-clamp technique gives a direct electrical read-out from membranes.)

A short description of data set [6]: metabolic stability in human liver microsomes. The data set is classed as in vitro ADME. The conditions noted are these: human liver microsomes. The protocol: as §1
(Microsomes from liver hold many membrane-bound enzymes, among them those of drug oxidation.)

The subject of data set [7] is hippocampal neurons. The experiment in a line: toxicity of compound alone in hippocampal neuronal culture. It is filed as cell-based, rat. The conditions noted are these: compound alone at different concentrations. The protocol: as §2
A short description of data set [8]: metabolic stability in mouse liver microsomes. It is filed as in vitro ADME. The following applies: mouse liver microsomes. The protocol:
as §1

Take `CCOC(=O)c1cnn(-c2ccc(-n3ccc(Cl)c(Br)c3=O)cc2)c1C(F)(F)F` [Compound 8, Ethyl 1-(4-(3-bromo-4-chloro-2-oxopyridin-1(2H)-yl)phenyl)-5-(trifluoromethyl)-1H-pyrazole-4-carboxylate]: the “survival of treated mice” value in data set [1] is on record as “alive”.

As to `CCOC(=O)c1cnn(-c2ccc(NC(=O)C(Cl)=C(Cl)Cl)cc2)c1C(F)(F)F` [Pyr3, reference compound], the IC50 was 700 nM at TRPC3 [2] and 0.53 ± 0.05 µM at TRPC3 [5] (agonist GSK1702934A, HEK293 whole-cell patch clamp, read-out: hTRPC3 IC50 (μM, mean ± SEM)). In addition, the “protection against Aβ-induced damage to dendrites (MAP2/DAPI)” value with hippocampal neurons [3] is “protect against Aβ-induced damage to dendrites”. Also, the half-life time entry in data set [4], in data set [6] and in data set [8] was “less than 15 minutes” in each case. The “hTRPC3 % Inhibition at 10 μM (mean ± SEM)” value on TRPC3 [5] (10 μM compound in presence of agonist GSK1702934A, HEK293 whole-cell peak current) worked out at 91.72 ± 0.53%. Moreover, the “toxicity in neuronal culture” value in the data set on hippocampal neurons [7] was “lack of toxicity”.

Values taken from patent publication US20230265068A1, “TRANSIENT RECEPTOR POTENTIAL CANONICAL 3 INHIBITORS AND METHODS OF USE THEREOF” (University of Tennessee Research Foundation, priority 2020, published 2023).
